Experimental data reported in patent JPH09183729A, “凍結乾燥ウラシルを含有する抗腫瘍医薬組成物” (priority 1995, dated 1997).
Values after ≈ are worked out from the molar mass of the structure shown.

Columns and labels:
[1] = FT compared with 5-FU; UFT compared with 5-FU, FT and other antitumour drugs; cited from earlier work
[2] = cited from earlier work
physchem = details: water, saturated solution concentration in water

Structure (SMILES)	toxicity / side effects [1]	solubility in water ([2]; 25℃ water, Merck Index) [g/100g]	solubility in alcohol and ether ([2]; alcohol and ether)	solubility in cold water ([2]; cold water)	solubility (physchem) [mg/mL]
O=c1[nH]cc(F)c(=O)[nH]1 [5-FU, 5-fluorouracil]	骨髄機能抑制などの重篤な副作用があり	–	–	–	–
O=c1cc[nH]c(=O)[nH]1 [ウラシル]	–	0.358	難溶	わずかに溶け	~14.7 (≈ 131 mM)
